What all share (format): cell-based
The subject of one test is HCC-2998. The experiment in a line: NCI 60 screen, HCC-2998. As to conditions: Homo sapiens, Colon. As for the experimental part: (§1) The compounds synthesized were tested at the National Cancer Institute (NCI) for anti-proliferative activity in the 60 human tumor cell line assay.
Test [1] relates to SK-MEL-2. The experiment in a line: NCI 60 screen, SK-MEL-2 (second line). The conditions noted are these: Homo sapiens; Melanoma, SK-MEL-2 (second of two lines so named, r38). As for the experimental part: as §1
The test system of the next test is SK-MEL-5. In words: NCI 60 screen, SK-MEL-5. The conditions noted are these: Homo sapiens, Melanoma. As for the experimental part:
as §1

The test system of the next test is SNB-19. The experiment in a line: NCI 60 screen, SNB-19. The conditions noted are these: Homo sapiens, CNS. As for the experimental part: as §1
In a further test the test system is MDA-MB-468. The experiment in a line: NCI 60 screen, MDA-MB-468. As to conditions: Homo sapiens, Breast. As for the experimental part:
as §1

In the next test the test system is NCI-H23. In words: NCI 60 screen, NCI-H23. The conditions noted are these: Homo sapiens, Non-Small Cell Lung. As for the experimental part:
as §1

The test system of the next test is NCI-322M. In words: NCI 60 screen, NCI-322M. The conditions noted are these: Homo sapiens, Non-Small Cell Lung. As for the experimental part:
as §1

The subject of the next test is SF-268. The experiment in a line: NCI 60 screen, SF-268. The conditions noted are these: Homo sapiens, CNS. As for the experimental part:
as §1

The test system of a further test is MCF7. In words: NCI 60 screen, MCF7. The conditions noted are these: Homo sapiens, Breast. As for the experimental part: as §1
Another test concerns CCRF-CEM. In words: NCI 60 screen, CCRF-CEM. The conditions noted are these: Homo sapiens, Leukemia. As for the experimental part:
as §1

For the next test, the system named is HOP-62. The experiment in a line: NCI 60 screen, HOP-62. The conditions noted are these: Homo sapiens, Non-Small Cell Lung. As for the experimental part: as §1
Another test has as its system SK-OV-3. In words: NCI 60 screen, SK-OV-3. As to conditions: Homo sapiens, Ovarian. As for the experimental part: as §1
Another test deals with MALME-3M. The experiment in a line: NCI 60 screen, MALME-3M. As to conditions: Homo sapiens, Melanoma. As for the experimental part: as §1
The test system of test [2] is SK-MEL-2. The experiment in a line: NCI 60 screen, SK-MEL-2 (first line). As to conditions: Homo sapiens; Melanoma, SK-MEL-2 (first of two lines so named, r37). As for the experimental part: as §1
The next test has as its system IGROV1. The experiment in a line: NCI 60 screen, IGROV1. As to conditions: Homo sapiens, IGROV-1, Ovarian. As for the experimental part: as §1
The subject of another test is TK-10. The experiment in a line: NCI 60 screen, TK-10. The conditions noted are these: Homo sapiens, Renal. As for the experimental part:
as §1

The subject of a further test is MOLT-4. In words: NCI 60 screen, MOLT-4. The conditions noted are these: Homo sapiens, Leukemia. As for the experimental part:
as §1

The next test relates to MDA-MB-435. In words: NCI 60 screen, MDA-MB-435. As to conditions: Homo sapiens, Melanoma. As for the experimental part: as §1
The next test deals with COLO 205. The experiment in a line: NCI 60 screen, COLO 205. As to conditions: Homo sapiens, Colon. As for the experimental part: as §1
The next test relates to RPMI-8226. In words: NCI 60 screen, RPMI-8226. As to conditions: Homo sapiens, Leukemia. As for the experimental part: as §1

`O=C(Cc1ccc(/C=C/C(=O)c2ncc[nH]2)cc1)Nc1ccc(Cl)cc1` [Compound 25, (E)-2-(-4 (3-(1H-imidazol-2-yl)-3-oxoprop-1-en-1-yl)phenyl)-N-(4-chlorophenyl)acetamide]: the GI50 in the test with HCC-2998 came to 3.73 µM; in the test on SK-MEL-2 [1], 4.81 µM; in the test with SK-MEL-5, 6.17 µM; in the test on SNB-19, 2.32 µM; with MDA-MB-468, 1.68 µM; in the test on NCI-H23 it was 2.97 µM. For the same molecule, the GI50 in the test with NCI-322M is 4 µM; in the test on SF-268, 1.65 µM; with MCF7 it was 0.742 µM; with CCRF-CEM, 1.08 µM; in the test with HOP-62 it was 3.19 µM; in the test with SK-OV-3, 9.74 µM. Moreover, the GI50 in the test with MALME-3M was 6.24 µM; in the test with SK-MEL-2 [2], 5.53 µM; with IGROV1 it was 3.59 µM; with TK-10, 5.41 µM; with MOLT-4, 1.8 µM; with MDA-MB-435, 4.14 µM. Also, the results for the GI50 with COLO 205 and in the test on RPMI-8226 were 3.01 µM and 0.857 µM, respectively.

In general, GI50 refers to the concentration giving 50% growth inhibition.

The record behind these values is patent publication US11098038B2, “Imidazole-based anticancer agents and derivatives thereof, and methods of making and using same” (The University of Toledo, priority 2017, dated 2021).
